Measurements as given in patent US20250268901A1, “CRYSTAL FORM OF AZETIDINE-SUBSTITUTED COMPOUND” (MEDSHINE DISCOVERY INC., priority 2020, published 2025).

Legend:
KRAS G12C = details: cited from earlier work
[1] = system: pancreatic cancer MIA-Paca2 cell; details: subcutaneous xenograft tumor model of pancreatic cancer MIA-Paca2 cell; cited from earlier work
NCI-H358 cells = experiment: Cell proliferation assay (CellTiter-Glo), NCI-H358; type: cell-based, Human
Protocol: (§1) The effect of the compound on cell proliferation was examined on NC-H358, MA-PA-CA-2, A375, SW1463, and A427 cells.
Medium for H358 cell line: 89% RPMI1640 medium+10% fetal bovine serum+1% P/S
(§2) • 1. The medium and pancreatin used in the process of cell passaging were pre-heated in a water bath at 37° C. • 2. The cells were rinsed with pancreatin and digested with pancreatin until the cells were detached. A culture solution was added, and the cells and the culture solution were well mixed to stop the digestion. • 3. The cells were pipetted into a 15 mL centrifuge tube, 0.01 mL of cell suspension was pipetted onto a count plate, and cells were counted. • 4. According to the cell densities shown in the table below, a proper amount of each type of cells was transferred to a 15 mL centrifuge tube and made up to a volume of 9 mL with a corresponding cell culture solution.
• 5. […]
(§3) • 1. On the day of compound treatment, the day-0 test plate was removed from the incubator, 50 µL of Cell Titer Glo was added, and the plate was centrifuged at 1000 rpm for 10 s, shaken at room temperature for 10 min, then centrifuged again at 1000 rpm for 10 s, and read on Envision. • 2. […] To each well of the 96-well plates, 50 µL of Cell Titer-Glo was added, and the plates were centrifuged at 1000 rpm for 10 s, shaken at room temperature for 10 min, then centrifuged again at 1000 rpm for 10 s, and read on Envision. • 3. […]

A375 cells = experiment: Cell proliferation assay (CellTiter-Glo), A375; type: cell-based, Human
Protocol: as §1
Medium for A375 cell line: 89% DMEM medium+10% fetal bovine serum+1% P/S
as §2
• 5. […]
as §3

A427 cells = experiment: Cell proliferation assay (CellTiter-Glo), A427; type: cell-based, Human
Protocol: as §1
Medium for A427 cell line: 89% EMEM medium+10% fetal bovine serum+1% P/S
as §2
• 5. […]
as §3

MIA-PA-CA-2 cells = experiment: Cell proliferation assay (CellTiter-Glo), MIA-PA-CA-2; type: cell-based, Human
Protocol: as §1
Medium for MIA-PA-CA-2 cell line: 86.5% DMEM medium+10% fetal bovine serum+2.5% horse serum+1% P/S
as §2, with “According to the cell densities shown in the table below, a proper amount of each type of cells was transferred to a 15 mL centrifuge tube and made up to a volume of 9 mL with a corresponding cell culture solution.” left out
as §3

SW1463 cells = experiment: Cell proliferation assay (CellTiter-Glo), SW1463; type: cell-based, Human
Protocol: as §1
Medium for SW1463 cell line: 89% Leibovit2 sL-15 medium+10% fetal bovine serum+1% P/S
as §2, with “According to the cell densities shown in the table below, a proper amount of each type of cells was transferred to a 15 mL centrifuge tube and made up to a volume of 9 mL with a corresponding cell culture solution.” left out
as §3

[2] = Pressure stability of crystal form (hydraulic press, XRPD); type: physicochemical
Protocol: The Hydraulic press experiment is carried out on an SYP-5BS manual press, and the pressure put on to the sample is about 350 MPa.
Crystal form C of the compound of formula (I) was added to a circular mold (6 mm in diameter) and pressurized to about 350 MPa. A small piece of the sheet-like sample was directly taken for XRPD analysis.

[3] = Solid stability of crystal form (XRPD and HPLC); type: physicochemical
Protocol: The purity and solubility of a sample are determined through a high performance liquid chromatograph Agilent 1260 HPLC.
To evaluate the solid stability of crystal form C of the compound of formula (I), crystal form C of the compound of formula (I) was subjected to stability testing under affecting factor conditions (high temperature, high humidity, and light), 60° C./75% RH conditions, and 40° C./75% RH conditions. Crystal form C was placed under a high-temperature condition (60° C., closed) and a high-humidity condition (92.5% RH, wrapped in a sealing film, with 5 small holes made) for 1 week and 2 weeks, placed in a closed container in visible light and ultraviolet light (a light-shielding control group was set at the same time, and the sample was wrapped in tinfoil) according to the ICH conditions (visible light illumination reached 1.2E+06 Lux hrs, and ultraviolet light illumination reached 200 W·hrs/m2), and meanwhile placed under 60° C./75% RH conditions (wrapped in a sealing film, with 5 small holes made) for 1 month and 2 months and under 40° C./75% RH conditions (wrapped in a sealing film, with 5 small holes made) for 1 month, 2 months, and 3 months. All the stability samples were tested for crystal form change by XRPD analysis and were analyzed by HPLC.

[4] = Light-shielding control group, simultaneously with visible + ultraviolet
[5] = Visible + ultraviolet (ICH conditions), 1.2E+06 Lux · hrs, 300 W · hrs/m^2

Structure (SMILES): C=CC(=O)N1CCN(c2ncnc3c(F)c(-c4c(O)cccc4F)c(Cl)cc23)CC1 [ARS-1620]
- cell antiproliferative activity at the cellular level (KRAS G12C): nM level
- tumor growth inhibition [1]: can effectively inhibit tumor growth

Structure (SMILES): C=CC(=O)N1CCN(c2nc(N3CC(N(CC)CC)C3)nc3c(=O)n(-c4c(N)c(Cl)cc(Cl)c4F)c(C(F)(F)F)cc23)CC1 [Compound of formula (I)]
- IC50 (NCI-H358 cells; Homo sapiens, NCI-H358, 120 h incubation, CellTiter-Glo): 13 ± 1.85 nM
- inhibitory activity against proliferation (NCI-H358 cells; human non-small cell lung cancer cell NCI-H358): good inhibitory activity
- IC50 (A375 cells; Homo sapiens, A-375, A375, 72 h incubation, CellTiter-Glo): 4.64 ± 0.0898 µM
- activity on cell (A375 cells; melanoma cell A375): weak activity
- IC50 (A427 cells; Homo sapiens, A-427, A427, 72 h incubation, CellTiter-Glo): > 6.98 µM
- activity on cell (A427 cells; human lung cancer cell A427): weak activity
- IC50 (MIA-PA-CA-2 cells; Homo sapiens, MIA PaCa-2, MIA-PA-CA-2, 72 h incubation, CellTiter-Glo): 34 ± 7.03 nM
- inhibitory activity against proliferation (MIA-PA-CA-2 cells; pancreatic cancer cell MIA-PA-CA-2): good inhibitory activity
- IC50 (SW1463 cells; Homo sapiens, SW1463, 144 h incubation, CellTiter-Glo): 112 ± 32.7 nM
- inhibitory activity against proliferation (SW1463 cells; human rectal adenocarcinoma cell SW1463): good inhibitory activity

Structure (SMILES): C=CC(=O)N1CCN(c2nc(N3CC(N(CC)CC)C3)nc3c(=O)n(-c4c(N)c(Cl)cc(Cl)c4F)c(C(F)(F)F)cc23)CC1 [crystal form C]
- pressure stability (conclusion) ([2]; about 350 MPa): good pressure stability
- crystal form change after being pressed (XRPD) ([2]; pressure of about 350 MPa): did not change
- Crystal form change ([3]; 40° C./75% RH, 1 month): Unchanged
- Purity (%) ([3]; 40° C./75% RH, 1 month): 98.00%
- Relative purity ([3]; 40° C./75% RH, 1 month): 100.2%
- Crystal form change ([3]; 40° C./75% RH, 2 months): Unchanged
- Purity (%) ([3]; 40° C./75% RH, 2 months): 97.92%
- Relative purity ([3]; 40° C./75% RH, 2 months): 100.1%
- Crystal form change ([3]; 40° C./75% RH, 3 months): Unchanged
- Purity (%) ([3]; 40° C./75% RH, 3 months): 98.02%
- Relative purity ([3]; 40° C./75% RH, 3 months): 100.2%
- Crystal form change ([3]; 60° C., closed, 1 week): Unchanged
- Purity (%) ([3]; 60° C., closed, 1 week): 97.99%
- Relative purity ([3]; 60° C., closed, 1 week): 100.1%
- Crystal form change ([3]; 60° C., closed, 2 weeks): Unchanged
- Purity (%) ([3]; 60° C., closed, 2 weeks): 97.98%
- Relative purity ([3]; 60° C., closed, 2 weeks): 100.1%
- Crystal form change ([3]; 60° C./75% RH, 1 month): Unchanged
- Purity (%) ([3]; 60° C./75% RH, 1 month): 97.92%
- Relative purity ([3]; 60° C./75% RH, 1 month): 100.1%
- Crystal form change ([3]; 60° C./75% RH, 2 months): Unchanged
- Purity (%) ([3]; 60° C./75% RH, 2 months): 97.98%
- Relative purity ([3]; 60° C./75% RH, 2 months): 100.1%
- Crystal form change ([3]; 92.5% RH, 1 week): Unchanged
- Purity (%) ([3]; 92.5% RH, 1 week): 98.03%
- Relative purity ([3]; 92.5% RH, 1 week): 100.2%
- Crystal form change ([3]; 92.5% RH, 2 weeks): Unchanged
- Purity (%) ([3]; 92.5% RH, 2 weeks): 98.00%
- Relative purity ([3]; 92.5% RH, 2 weeks): 100.2%
- Crystal form change [3, 4]: Unchanged
- Purity (%) [3, 4]: 98.00%
- Relative purity [3, 4]: 100.2%
- Crystal form change ([3]; Starting sample): Unchanged
- Purity (%) ([3]; Starting sample): 97.85%
- Crystal form change [3, 5]: Unchanged
- Purity (%) [3, 5]: 96.62%
- Relative purity [3, 5]: 98.7%
- solid stability (conclusion) ([3]; high temperature, high humidity, light, 60° C./75% RH, 40° C./75% RH): good solid stability
